How the values were obtained:
Format in all cases: physicochemical
[1] = Proton relaxivity R^1 in plasma (Minispec P 20); details: in plasma (bovine) at 40° C., field strength 0.47 Tesla
Procedure: As a third criterion, the proton-relaxivity in plasma (R^1) at 40° C. and a field strength of 0.47 tesla are used. The relaxivity, which is indicated in [l/mmol·s], is the quantitative measurement for the shortening of relaxation time T^1 of the protons. For the purpose according to the invention, the relaxivity must be as high as possible and >10 l/mmol·s, preferably >13 l/mmol·s, especially preferably >15 l/mmol·s.
Relaxivity R^1 [l/mmol·s] of the MR-contrast media according to the invention was determined with the Minispec P 20 device of the Bruker Company. The measurements were taken at 40° C. and a field strength of 0.47 tesla. Eight measuring points were recorded by each T1-sequence: 180°-TI-90°, inversion recovery. As a medium, bovine plasma of the Kraeber Company was used. The contrast medium concentrations [mmol/l] in the batches were between 0.30 and 1.16.
The measurements were carried out in plasma at 40° C. and a field strength of 0.47 Tesla.

[2] = Critical micelle formation concentration (CMC) by tensiometry
Procedure: In aqueous systems, these amphiphilic molecules show the properties that are characteristic of standard surfactants (such as, e.g., sodium dodecylsulfate, SDS). They thus reduce the surface tension of water. By tensiometry, the so-called CMC (critical micelle formation concentration in mol/l) can be determined. In this respect, the surface tension is determined based on the concentration of the substance to be measured. The CMC can be calculated from the plot of the surface tension function (c) that is obtained. The critical micelle formation concentration of the compounds according to the invention must be <10^−3 mol/l, preferably <10^−4 mol/l.
(§1) Both the determination of the CMC and the photon correlation spectroscopy are described in H.-D. Dörfler, “Grenzflächen-und Kolloidchemie [Interface and Colloid Chemistry],” Weinheim, New York, Basel, Cambridge, Tokyo, VSH 1994.

[3] = Hydrodynamic micelle diameter 2 Rh by photon correlation spectroscopy
Excerpt: The amphiphilic compounds according to the invention are associated in solution and are present as aggregates. The size (2 Rh) of such aggregates (e.g., micelles, rods, wafers, etc.) can be determined with the aid of […] (PCS).
As a second criterion, the hydrodynamic micelle diameter 2 Rh, which must be >1 nm, is therefore used. In particular, those perfluoroalkyl-containing metal complexes according to the invention whose 2 RH≧3 nm, quite especially preferably >4 nm, are suitable.
as §1

R^1 (Relaxivity) [1]	CMC (Critical Micelle Formation Concentration) [2]	2 Rh (Hydrodynamic Micelle Diameter) [3]	Compound
27.9 l: mmol · s	8.1e-06 mol/L	4.7 nm	COCCOCCOCCOCCOCC(=O)NCCCC[C@H](NC(=O)COCCC(F)(F)C(F)(F)C(F)(F)C(F)(F)C(F)(F)C(F)(F)C(F)(F)C(F)(F)F)C(=O)NCC(O)CN1CCN(CC(=O)[O-])CCN(CC(=O)[O-])CCN(CC(=O)[O-])CC1.[Gd+3] (stereo partly drawn) [MK 28, 6-N-3,6,9,12,15-Pentaoxahexadecanoyl-2-N-2H,2H,4H,4H,5H,5H-3-oxaperfluorotridecanoyl-L-lysine-N-{1,4,7-tris[carboxylatomethyl]-1,4,7,10-tetraazacyclododecane-10-(2-hydroxy-3-yl), gadoliniumcomplex}-amide]
17.7 l: mmol · s	7.6e-05 mol/L	4.8 nm	Gadolinium complex of 10-{1-carboxy-2-carbonyl-[piperazin-1-yl-4-(perfluorooctylsulfonyl)]}-ethyl-1,4,7-tris(carboxymethyl)-1,4,7,10-tetraazacyclododecane, Sodium salt [MK 29]
19.5 l: mmol · s	0.00089 mol/L	2.2 nm	gadolinium complex of 1,4,7-tris{1,4,7-tris(N-(carboxylatomethyl)-10-[N-1-methyl-3,6-diaza-2,5,8-trioxooctane-1,8-diyl)]-1,4,7,10-tetraazacyclododecane, Gd complex}-10-[N-2H,2H,4H,4H,5H,5H-3-oxa-perfluorotridecanoyl]-1,4,7,10-tetraazacyclododecane [MK 12]
27.9 l: mmol · s	7e-06 mol/L	7.9 nm	O=C([O-])CN1CCN(CC(=O)[O-])CCN(CC(O)CNC(=O)CNC(=O)CNC(=O)CNC(=O)COCCC(F)(F)C(F)(F)C(F)(F)C(F)(F)C(F)(F)C(F)(F)C(F)(F)C(F)(F)F)CCN(CC(=O)[O-])CC1.[Gd+3] (stereo not drawn) [MK 30, 1,4,7-Tris(carboxylatomethyl)-1,4,7,10-tetraazacyclododecane-10-{2-hydroxy-3-N-[triglycidyl-N-(2H,2H,4H,4H,5H,5H-3-oxa-perfluorotridecanoyl)]amino}-propyl, gadolinium complex]

— patent publication US7344704B2, “Use of perfluoroalkyl-containing metal complexes as contrast media in MR-imaging for visualization of intravascular thrombi” (Schering AG, priority 2002, dated 2008)
